# Laboratory results from PubChem BioAssay AID2060495 (Molecular Pharmacology Branch, DTP, NCI, 2025).
# “And” between values parts separate entries of the source, which are not always exact repeats. Equal entries are not always repeated.
# System: 521955-158-R2-J5-PDC complex spheroid viability
# Assay: Anticancer human tumor 521955-158-R2-J5-PDC patient-derived pancreatic carcinoma cell line growth inhibition [GQUAD]
# Conditions: for viability, T/C: stronger effect = lower value
# Description: DNA G-quadruplex Stabilizer Agents in Combinations in Complex Spheroids
# A high-throughput screen of multi-cell type tumor spheroids was designed to identify active combinations of DNA G-quadruplex stabilizer agents and targeted small molecules. Complex spheroids include a stromal component modeled by human endothelial cells (HUVEC) and fibroblasts modeled by human mesenchymal stem cells (MSCs). The concentration ranges selected for each drug and investigational agent were based upon clinically achievable concentrations if the clinical Cmax of the agent was known.
# Compounds. The drugs and investigational agents: pidnarulex (CX-5461; NSC782164), APTO-253 (NSC789042), BRACO-19 (NSC847499), peposertib (NSC802822), ceralasertib (NSC780249), elimusertib (NSC800525), camonsertib (NSC841442), AZD-1390 (NSC803789), olaparib (NSC753686), talazoparib (NSC767125), ART-558 (NSC835418), sotorasib (NSC818433), MRTX-1133 (NSC836407), SN-38 (NSC673596), topotecan (NSC609699), etoposide (NSC141540), doxorubicin (NSC123127), gemcitabine (NSC613327), 5-fluorouracil (NSC19893), paclitaxel (NSC125973), vemurafenib (NSC761431), panobinostat (NSC761190), R-306465 (JNJ-16241199; NSC773264), adavosertib (NSC754352), TP-3654 (NSC805149), carboplatin (NSC241240), KSQ-4279 (NSC840948), and staurosporine (NSC755774) were obtained from the National Cancer Institute (NCI) Developmental Therapeutics Program Chemical Repository (34). The FDA-approved anticancer drug set is available from the NCI Developmental Therapeutics Program. […] The stock solutions were prepared in dimethyl sulfoxide (DMSO, Sigma-Aldrich, St. Louis, MO, cat. D2650) at 800-fold the tested concentration and stored at -70 degrees C prior to their use. All drugs and investigational agents were tested over a range starting from a high concentration at or near the clinical Cmax and decreasing in half-log increments. If the clinical Cmax for an agent had not been determined, the highest concentration tested was 10 microM.
# 2.3 Cell Culture. All cells were maintained in an incubator at 37 degrees C and 5% CO2 with 95% humidity. The PDC lines were cultured according to standard operating procedures established by the NCI PDMR. All PDCs were thawed and cultured in Matrigel-coated flasks prepared with a working solution of 1X Ham's F-12 nutrient mix, without supplementation (Invitrogen, cat. 11765054), 100 U/mL penicillin-streptomycin (Invitrogen, cat. 15140122), and 2.5% Matrigel (Corning Inc., cat. 354248) for the first three passages. The 857933-349-R-J2-PDC line was cultured in 6C/Colon 1B media, which includes advanced DMEM/F-12 (Thermo Fisher Scientific, cat. 12634028), 10 mM HEPES (Thermo Fisher Scientific, cat. 15630080), 1X GlutaMAX supplement (Thermo Fisher Scientific, cat. 35050061), 0.1 mg/mL primocin (InvivoGen, cat. ant-pm-2), 10% defined fetal bovine serum, heat inactivated (HyClone Laboratories Inc., cat. SH30070.03HI), 50% L-WRN conditioned media (ATCC, cat. CRL-3276), 1.25 mM N-Acetyl-L-cysteine (Sigma-Aldrich, cat. A9165), 10 mM nicotinamide (Sigma-Aldrich, cat. N0636), 1X B-27 supplement (Thermo Fisher Scientific, cat. 17504044), 1X N-2 supplement (Thermo Fisher Scientific, cat. 17502048), 10 microM Y-27632 dihydrochloride (Tocris Bioscience, cat. 1254), and 50 ng/mL human EGF recombinant protein (Thermo Fisher Scientific, cat. PHG0311). The 485176-168-R4-J1-PDC line was cultured in Panc media, which includes all 6C/Colon 1B media components plus 100 ng/mL human FGF-10 (Thermo Fisher Scientific, cat. 100-26), 500 nM SB-431542 (Selleckchem, cat. S1067), and gastrin (Tocris, cat. 3006).
# […]
# 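Note: spheroids exposed to agents for one week before reading.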
# 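Throughout, for viability, T/C: 100% = DMSO vehicle control viability.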
compound,measurement,setting,value
O=C(NO)c1cnc(N2CCN(S(=O)(=O)c3ccc4ccccc4c3)CC2)nc1,"viability, T/C",compound 0.0316 µM,120% and 129% and 128%
same,"viability, T/C",compound 0.1 µM,106% and 103% and 98.8%
same,"viability, T/C",compound 0.316 µM,97.3% and 66.4% and 48.3%
same,"viability, T/C",compound 1 µM,42.6% and 28.9% and 15%
same,"viability, T/C",compound 3.16 µM,0.27% and 0.42% and 0.06%
same,"viability, T/C",compound 10 µM,0.25% and 0.27% and 0.09%
same,IC50,curve of compound,838 nM and 501 nM and 307 nM
COc1ncnc(C2CC2)c1-c1ncc2cnn(Cc3ccc(-c4nc(C(F)(F)F)cn4C(C)C)cc3)c2n1,"viability, T/C",compound 0.0316 µM,116% (2×) and 103%
same,"viability, T/C",compound 0.1 µM,88.7% and 102% and 106%
same,"viability, T/C",compound 0.316 µM,105% and 113% and 124%
same,"viability, T/C",compound 1 µM,85% and 107% and 113%
same,"viability, T/C",compound 3.16 µM,116% and 114% and 132%
same,"viability, T/C",compound 10 µM,124% and 108% and 134%
same,IC50,curve of compound,> 10000 nM
Cc1[nH]c2ccc(F)cc2c1-c1nc2c3cccnc3c3ncccc3c2[nH]1,"viability, T/C",compound 0.0316 µM,106% [middle of 12 runs]
same,"viability, T/C",compound 0.1 µM,100% [middle of 12 runs]
same,"viability, T/C",compound 1 µM,102% [middle of 12 runs]
same,"viability, T/C",compound 10 µM,89.7% [middle of 12 runs]
same,IC50,"compound alone, run of 04/16/2024",> 10000 nM
same,IC50,"compound alone, run of 04/22/2024",> 10000 nM
CC(C)(O)C1CCC(Nc2ccc3ncc(-c4cccc(C(F)(F)F)c4)n3n2)CC1 (centres undefined),"viability, T/C",compound 0.0316 µM,120% and 105% and 102%
same,"viability, T/C",compound 0.1 µM,109% and 101% and 81.3%
same,"viability, T/C",compound 0.316 µM,107% and 114% and 115%
same,"viability, T/C",compound 1 µM,110% and 112% and 125%
same,"viability, T/C",compound 3.16 µM,15.4% and 16.3% and 6.66%
same,"viability, T/C",compound 10 µM,18.2% and 18% and 8.13%
same,IC50,curve of compound,2100 nM and 2090 nM and 1920 nM
CC[C@@]1(O)C(=O)OCc2c1cc1n(c2=O)Cc2cc3c(CN(C)C)c(O)ccc3nc2-1 + Cc1cnc(CNC(=O)c2c(=O)c3ccc(N4CCCN(C)CC4)nc3n3c2sc2ccccc23)cn1,IC50,"curve of first compound, second compound 0.0316 µM",56.2 nM
same,IC50,"curve of first compound, second compound 0.1 µM",27.8 nM
same,IC50,"curve of first compound, second compound 0.316 µM",10.7 nM
same,IC50,"curve of first compound, second compound 1 µM",< 0.999 nM
same,IC50,"curve of first compound, second compound 3.16 µM",< 0.999 nM
same,IC50,"curve of first compound, second compound 10 µM",< 0.999 nM
same,"viability, T/C","second compound 0.0316 µM, first compound 0.000999 µM",82.3%
same,"viability, T/C","second compound 0.0316 µM, first compound 0.00316 µM",80.4%
same,"viability, T/C","second compound 0.0316 µM, first compound 0.00999 µM",59.7%
same,"viability, T/C","second compound 0.0316 µM, first compound 0.0316 µM",71.6%
same,"viability, T/C","second compound 0.0316 µM, first compound 0.0999 µM",29%
same,"viability, T/C","second compound 0.0316 µM, first compound 0.316 µM",12.1%
same,"viability, T/C","second compound 0.1 µM, first compound 0.000999 µM",74.9%
same,"viability, T/C","second compound 0.1 µM, first compound 0.00316 µM",78%
same,"viability, T/C","second compound 0.1 µM, first compound 0.00999 µM",73.3%
same,"viability, T/C","second compound 0.1 µM, first compound 0.0316 µM",46.7%
same,"viability, T/C","second compound 0.1 µM, first compound 0.0999 µM",22.4%
same,"viability, T/C","second compound 0.1 µM, first compound 0.316 µM",16.2%
same,"viability, T/C","second compound 0.316 µM, first compound 0.000999 µM",51.6%
same,"viability, T/C","second compound 0.316 µM, first compound 0.00316 µM",47.2%
same,"viability, T/C","second compound 0.316 µM, first compound 0.00999 µM",55%
same,"viability, T/C","second compound 0.316 µM, first compound 0.0316 µM",29.6%
same,"viability, T/C","second compound 0.316 µM, first compound 0.0999 µM",18.7%
same,"viability, T/C","second compound 0.316 µM, first compound 0.316 µM",15.6%
same,"viability, T/C","second compound 1 µM, first compound 0.000999 µM",23.7%
same,"viability, T/C","second compound 1 µM, first compound 0.00316 µM",24.9%
same,"viability, T/C","second compound 1 µM, first compound 0.00999 µM",24.6%
same,"viability, T/C","second compound 1 µM, first compound 0.0316 µM",19%
same,"viability, T/C","second compound 1 µM, first compound 0.0999 µM",16.7%
same,"viability, T/C","second compound 1 µM, first compound 0.316 µM",11.2%
same,"viability, T/C","second compound 3.16 µM, first compound 0.000999 µM",21.1%
same,"viability, T/C","second compound 3.16 µM, first compound 0.00316 µM",29.1%
same,"viability, T/C","second compound 3.16 µM, first compound 0.00999 µM",18.2%
same,"viability, T/C","second compound 3.16 µM, first compound 0.0316 µM",17.8%
same,"viability, T/C","second compound 3.16 µM, first compound 0.0999 µM",11.8%
same,"viability, T/C","second compound 3.16 µM, first compound 0.316 µM",10.1%
same,"viability, T/C","second compound 10 µM, first compound 0.000999 µM",21.3%
same,"viability, T/C","second compound 10 µM, first compound 0.00316 µM",23.7%
same,"viability, T/C","second compound 10 µM, first compound 0.00999 µM",22.1%
same,"viability, T/C","second compound 10 µM, first compound 0.0316 µM",15.7%
same,"viability, T/C","second compound 10 µM, first compound 0.0999 µM",11.5%
same,"viability, T/C","second compound 10 µM, first compound 0.316 µM",6.12%
